Data as given in patent US8802597B2, “Herbicidal pyrimidines” (E I du Pont de Nemours and Company, priority 2003, dated 2014).

Tested on: wild oat (Avena fatua)
Assay: Test C postemergence
Assay type: in vivo
Conditions: for Oat, Wild plant response rating / pest or weed control at 125 g/ha / pest or weed control at 62 g/ha: scale 0 to 100 (0 no effect, 100 complete control); for pest or weed control at 125 g/ha / pest or weed control at 62 g/ha: Avena fatua, post-emergence, read-out: Oat, Wild plant response rating; for Plant response rating, Oat, Wild: scale 0 to 100
In short: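 Test compounds, formulated in a non-phytotoxic solvent mix with surfactant, were applied to freshly planted seeds and, at the same time, to emerged plants at 1- to 4-leaf stage (2 to 18 cm). After 12 to 14 days in the greenhouse, response was scored visually versus controls, 0 = no effect, 100 = complete control.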

SMILES: COC(=O)c1nc(-c2ccc(Br)cc2)nc(N)c1Br [Compound 129]
- Plant response rating (scale of 0 to 100), Oat, Wild (16 g ai/ha): 30
- Plant response rating (scale of 0 to 100), Oat, Wild (31 g ai/ha): 35
- Plant response rating (scale of 0 to 100), Oat, Wild (62 g ai/ha): 40
- Oat, Wild plant response rating (125 g ai/ha): 40

SMILES: Nc1nc(-c2ccc(Cl)cc2)nc(C(=O)O)c1Cl [Compound 65, 6-amino-5-chloro-2-(4-chlorophenyl)-4-pyrimidinecarboxylic acid]
- Plant response rating (scale of 0 to 100), Oat, Wild (16 g ai/ha): 5
- Plant response rating (scale of 0 to 100), Oat, Wild (31 g ai/ha): 15
- Plant response rating (scale of 0 to 100), Oat, Wild (62 g ai/ha): 20
- pest or weed control at 125 g/ha (125 g ai/ha): 40%

SMILES: COC(=O)c1nc(C(C)C)nc(N)c1Br [Compound 3]
- Plant response rating (scale of 0 to 100), Oat, Wild (31 g ai/ha): 30
- Plant response rating, Oat, Wild (250 g ai/ha): 40
- pest or weed control at 62 g/ha (62 g ai/ha): 30%
- pest or weed control at 125 g/ha (125 g ai/ha): 40%

SMILES: CNN=Cc1nc(C2CC2)nc(N)c1Br [Compound 49]
- Oat, Wild plant response rating (62 g ai/ha): 30
- Oat, Wild plant response rating (125 g ai/ha): 40
- Plant response rating, Oat, Wild (250 g ai/ha): 40
- Plant response rating, Oat, Wild (500 g ai/ha): 60

SMILES: CCOC(=O)C(Cl)(Cl)c1nc(C2CC2)nc(N)c1Br [Compound 34]
- Plant response rating (scale of 0 to 100), Oat, Wild (31 g ai/ha): 20
- Oat, Wild plant response rating (62 g ai/ha): 40
- Oat, Wild plant response rating (125 g ai/ha): 45
- Plant response rating, Oat, Wild (250 g ai/ha): 50

SMILES: COC(=O)c1nc(C2CC2)nc(N)c1Br [Compound 2, methyl 6-amino-5-bromo-2-cyclopropyl-4-pyrimidinecarboxylate]
- Plant response rating (scale of 0 to 100), Oat, Wild (31 g ai/ha): 20
- Plant response rating, Oat, Wild (250 g ai/ha): 60
- pest or weed control at 62 g/ha (62 g ai/ha): 55%
- pest or weed control at 125 g/ha (125 g ai/ha): 55%
